Data set [1] has as its system Swiss male mice. As to the kind of experiment: Acute in vivo toxicity, unique IP injection. The following applies: mice, from 20 mg/kg/day. The procedure:
To evaluate the in vivo toxicity selected compounds were injected by intraperitoneal (IP) route to 7 weeks-old male Swiss mice (n = 2) at 10, 20, 40, 50, or 80 mg/kg by unique injection. […] Compounds were administered in their hydrochloride salt forms. Mice were then observed closely for the next one hour, then every hour for 8 h. Observations were continued for 72 h for signs of pain or toxicity such as change in the behavior and in the activity in the cage (decreased locomotion) or change in the appearance (curved back, eyes half-closed, bristle hair, hips hollowed out). In vivo toxicity of compound OR0642 at 40 and 80 mg/kg was also assessed in the NOD-SCID-IL2Rγc null (NSG) mice model for 2 weeks in the presence and absence of dT to confirm the safety of the compound. […]. Blood samples were collected and spun at 10,000 × g prior to collecting the plasma supernatants. All plasma samples were frozen at −80 °C before sample processing. 13 μl of each plasma sample was mixed with 33 μl of acetonitrile to precipitate proteins and extract the compound. Samples were vortexed for 5 min and then placed in an ultrasonic bath for 1 min. The precipitated proteins were sedimented by centrifugation (15,000 × g, 5 min, 16 °C). Supernatants were transferred to a microplate to be analyzed by LC–MS/MS. All samples were analyzed with a UHPLC coupled to a Shimadzu LC-MS 8030 triple quadrupole. The solutions of a standard range, prepared with plasma from untreated mice, were analyzed in the same series of injections.

Data set [2] deals with CCRF-CEM cells. As to the kind of experiment: γH2A.X measurements (DNA damage). In kind it is cell-based, human. The following applies: 24 h, dT 200 µM, others 1 µM, presence of dC. As to the method: CCRF-CEM cells were seeded at 100,000 cells/ml, and treated with DMSO (0.01%) as vehicle control or dT (200 μΜ), and/or dC, OR0642, DI-87 and DI-39 (1 μΜ). For cell cycle analysis, cells were harvested after 24 h, fixed in 4% paraformaldehyde, permeabilized with 0.15% Triton X100, and DNA content was determined using 1 μg/ml DAPI. For apoptosis assay, cells were harvested after 72 h and cell death was assayed using Annexin V-APC and 7AAD following manufacturer’s instructions (Biolegend, 640930). For γH2A.X measurements, cells were harvested after 24 h, fixed in 4% paraformaldehyde and permeabilized with 0.15% Triton X100. Then, cells were stained with the phospho-H2AX (pS139 H2AX, Biolegend, 613402, 1:1000) specific primary antibody, Alexa-Fluor 488 secondary antibody (ThermoFisher, A21202, 1:1000) and DAPI. All acquisitions were performed on a BD Fortessa cytometer, and analysis of flow cytometry data was performed using FlowJo™ Software 10.7.1 (BD Life Sciences). Each experiment was performed three times. Figures exemplifying the gating strategy are provided in the Supplementary Information (Supplementary Figs. 29–31).
Cells were seeded, treated and stained as described for flow cytometry analysis, and then spread on a microscope slide using cytospin. Slides were mounted with […] mounting medium with DAPI (Vector Laboratories). […]

In data set [3] the target is T1, human c-KIT (Homo sapiens, UniProt P10721).
T1 construct: expressed in transfected cells; host or cells: Ba/F3 (murine IL3-dependent pro-B cell line)
T1 sequence (P10721 26-976): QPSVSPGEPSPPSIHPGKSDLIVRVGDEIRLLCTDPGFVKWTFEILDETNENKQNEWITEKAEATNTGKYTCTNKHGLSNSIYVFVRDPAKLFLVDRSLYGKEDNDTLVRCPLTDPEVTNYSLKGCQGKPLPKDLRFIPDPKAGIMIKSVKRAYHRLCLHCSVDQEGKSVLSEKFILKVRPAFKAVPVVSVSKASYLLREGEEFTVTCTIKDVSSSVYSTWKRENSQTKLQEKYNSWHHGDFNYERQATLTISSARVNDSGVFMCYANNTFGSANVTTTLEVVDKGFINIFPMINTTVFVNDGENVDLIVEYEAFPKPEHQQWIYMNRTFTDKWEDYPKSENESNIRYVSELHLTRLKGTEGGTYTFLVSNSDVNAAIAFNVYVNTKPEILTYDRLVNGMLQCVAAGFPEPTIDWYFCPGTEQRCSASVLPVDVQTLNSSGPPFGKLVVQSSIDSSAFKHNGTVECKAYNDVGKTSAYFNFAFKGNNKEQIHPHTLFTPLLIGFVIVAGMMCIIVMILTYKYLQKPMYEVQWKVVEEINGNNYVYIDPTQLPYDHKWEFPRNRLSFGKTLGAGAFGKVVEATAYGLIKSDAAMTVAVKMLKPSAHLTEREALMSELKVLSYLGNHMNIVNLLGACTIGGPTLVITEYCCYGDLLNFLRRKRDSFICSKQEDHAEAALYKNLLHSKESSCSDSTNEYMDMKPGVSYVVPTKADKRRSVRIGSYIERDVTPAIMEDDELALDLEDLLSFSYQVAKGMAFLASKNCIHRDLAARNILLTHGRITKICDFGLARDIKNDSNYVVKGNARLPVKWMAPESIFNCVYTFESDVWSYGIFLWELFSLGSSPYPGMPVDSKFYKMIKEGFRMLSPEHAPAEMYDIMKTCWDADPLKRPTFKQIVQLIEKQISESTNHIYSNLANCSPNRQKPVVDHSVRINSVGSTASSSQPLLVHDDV
As to the kind of experiment: c-KIT cellular assay: Ba/F3 proliferation with SCF, without IL3. It is filed as cell-based. The following applies: for Cell proliferation of the IL-3 dependent Ba/F3 cell line Mean (% prolif): SCF, no IL3, 48 h; for IC50 ratio of IL3/SCF (unspecific/c-KIT): Ba/F3 expressing WT human c-KIT, 72 h. As to the method: The generation of Ba/F3 cells expressing wild-type human c-KIT has been previously described by us[55],[56]. For the assay of Ba/F3 cell proliferation, plates were seeded with a total of 10,000 cells per well. Cells were supplemented, or not, with either 0.1% IL3 or 250 ng/ml murine SCF. IL3 was obtained from conditioned medium from X63-omIL-3 cells (obtained from Fritz Melchers laboratory (Berlin, Germany)) and murine SCF, which activates c-KIT, was purified from the conditioned medium of SCF-producing CHO cells. Cells were supplemented with compounds at varying concentrations (final 0.1% DMSO). […] The amount of reduced dye formed by metabolically active cells was quantified by its fluorescence measured at 560 nm (excitation) and 590 nm (emission) in a microplate reader (FLUOstar Omega, BMG Labtech). A blank well without cells was used as a background control. Each experiment was performed at least three times (with technical triplicates) and data are presented as the mean ± SD.

The test system of data set [4] is PDX UPNT730. As to the kind of experiment: Ex vivo testing on PDX samples (viability, flow cytometry, 72 h), with or without OP9-DL1 monolayer. In kind it is cell-based, human. The following applies: for viability at 12 µM / viability at 37 µM / viability at 111 µM / viability at 333 µM / viability at 1000 µM / viability at 3000 µM: Homo sapiens, read-out: Cell viability, Mean (% viab); for viability at 12 µM: dT 12 µM; for viability at 37 µM: dT 37 µM; for viability at 111 µM: dT 111 µM; for viability at 333 µM: dT 333 µM; for viability at 1000 µM: dT 1000 µM; for viability at 3000 µM: dT 3000 µM. The source says: Bone marrow-infiltrating blasts from terminally mice bearing PDX as stated above were collected as established before. Extensive analysis (immunophenotype and molecular analysis) of matched primary and PDX samples used in the study are shown in Supplementary Table 7, showing that they remain stable. Briefly, after euthanasia, bone marrows from tibiae, hips, femurs, and vertebrae were isolated and blasts collected for subsequent ex vivo experiments. All samples used contained ≥90% blasts as determined by flow cytometry. For the cytotoxic evaluation of OR0642, blasts were then stained with CellTraceTM Violet (CTV, Thermo Fisher Scientific, C34557) prior seeding at 10,000 cells into 96-well plates under normal conditions or pre-plated with OP9-DL1 cells. Cells were cultured in RPMI 1640 supplemented with 20% fetal bovine serum, 50 µg/ml streptomycin, 50 UI penicillin, 4 mM L-glutamine, and a cocktail of human cytokines as previously established (50 ng/ml human stem cell factor, 20 ng/ml hFLT3-L, 10 ng/ml hIL-7 and 20 nM insulin (Miltenyi Biotec))[28]. […] Rescue by dC supplementation (1 µM) was also evaluated. OR0642 was then tested alone, or combined with dT or dT + dC at two concentrations (0.25 and 0.5 µM). Cell viability was evaluated by flow cytometry 72 h post-treatment. Proliferation indexes were calculated using the detection of CTV in the control replicates (DMSO) and the proliferation modeling tool of FlowJo™ Software 10.7.1 (BD Life Sciences). A control peak of undivided CTV-stained cells was systematically used to set the undivided fraction.
A general note: Flow cytometry measures light scatter and fluorescence of single cells or particles in a stream.

Where two headings read alike, the source gives them in different places.

Consider `CCCN(c1nc(-c2nc(N)cc(N)n2)cs1)c1cc(-c2ccc(CCN3CCN(C)CC3)nc2)ccc1C` [OR0602], for which, in data set [1], the in vivo tolerance result is “unacceptable side effects”.
`CCCN(c1nc(-c2nc(N)cc(N)n2)cs1)c1cc(-c2ccc(S(=O)(=O)N3CCN(C)CC3)cc2C(F)(F)F)ccc1C` [OR0642]: the “DNA damage, γH2A.X” value in data set [2] is recorded as “neither dT nor OR0642 alone induced DNA damage or apoptosis”.
Regarding `Cc1ccc(NC(=O)c2ccc(CN3CCN(C)CC3)cc2)cc1Nc1nc(-c2nccc(N)n2)cs1` [dCKi1], the “Cell proliferation of the IL-3 dependent Ba/F3 cell line Mean (% prolif)” value (from here on “Cell proliferation … (% prolif)”) in data set [3] (3.7 nM) amounted to 98.5%; in data set [3] (11 nM), 97.1%; in data set [3] (33 nM), 99.7%; in data set [3] (99 nM), 87.3%; in data set [3] (296 nM), 83.7%; in data set [3] (889 nM), 66.8%. For the same compound, the entries for the “Cell proliferation … (% prolif)” value in data set [3] (2667 nM), in data set [3] (8000 nM) and in data set [3] (24000 nM) were 24.0%, 0.4% and 0.35%, respectively. For the same compound, in data set [3], the “IC50 ratio of IL3/SCF (unspecific/c-KIT)” value came to 7.6.
In the case of `Cc1ccc(NC(=O)c2ccc(CN3CCN(C)CC3)cc2)cc1Nc1nc(-c2nc(N)cc(N)n2)cs1` [dCKi2, N-(3-((4-(4,6-diaminopyrimidin-2-yl)thiazol-2-yl)amino)-4-methylphenyl)-4-((4-methylpiperazin-1-yl)methyl)benzamide], the “Cell proliferation … (% prolif)” value was 97.2% in data set [3] (3.7 nM); 96.0% in data set [3] (11 nM); 97.1% in data set [3] (33 nM); 91.8% in data set [3] (99 nM); 94.5% in data set [3] (296 nM); 86.6% in data set [3] (889 nM). For the same compound, the results for the “Cell proliferation … (% prolif)” value in data set [3] (2667 nM), in data set [3] (8000 nM) and in data set [3] (24000 nM) were 76.3%, 48.8% and 6.7%, respectively. The “IC50 ratio of IL3/SCF (unspecific/c-KIT)” value in data set [3] is listed as 2.7.
For `Cc1cn([C@H]2C[C@H](O)[C@@H](CO)O2)c(=O)[nH]c1=O` [dT, thymidine], in data set [4] (UPNT730 + OP9-DL1), the viability (as a rule, a read-out of living cells in per cent, often relative to untreated cells) at 12 µM was 100%; the viability at 37 µM was 96.3%; the viability at 111 µM turned out to be 86.4%; the viability at 333 µM stood at 82%. Moreover, in data set [4] (UPNT730 + OP9-DL1), the viability at 1000 µM stood at 72.2% and the viability at 3000 µM amounted to 72.9%. Besides, in data set [4] (UPNT730), the viability at 12 µM was 100%, the viability at 37 µM amounted to 106%, the viability at 111 µM amounted to 107% and the viability at 333 µM stood at 109%. For the same compound, in data set [4] (UPNT730), the viability at 1000 µM is 102% and the viability at 3000 µM was 105%. The “Response at dT100 µM” value in data set [4] (PDX 730, dT 100 µM) was 17. Moreover, the “sensitivity” value in data set [4] (proliferative conditions (OP9-DL1 monolayer)) is reported as “sensitive”. Moreover, in data set [2], the “DNA damage, γH2A.X” value is listed as “neither dT nor OR0642 alone induced DNA damage or apoptosis”.

(Values after paper PMC10227015, “From a drug repositioning to a structure-based drug design approach to tackle acute lymphoblastic leukemia” (Nature Communications, 2023).)
